Measured values taken from PubChem BioAssay (NCI).
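Five compound concentrations were applied to cells in 96-well plates for 48 hours; endpoints were derived by simple linear interpolation of the resulting dose-response curve. GI50 marks 50% less growth. The concentration for full growth arrest is given as TGI.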

How the values were obtained:
Assay in all cases: NCI anticancer screen, dose series, 48 h
[1] = system: NCI/ADR-RES ovarian
[2] = system: T-47D breast
[3] = system: M19-MEL melanoma
[4] = system: RXF-631 renal
[5] = system: SNB-78 CNS
[6] = system: HOP-18 NSCLC
[7] = system: DMS 114 small cell lung
[8] = system: KM20L2 colon
[9] = system: MDA-N

Row | SMILES | GI50 [1] | TGI [1] | GI50 [2] | TGI [2] | TGI [3] | TGI [5] | TGI [7] | further results
1 | C=CCCCC(O)c1ccc(C(O)c2cnc3ccccc3c2)o1 (stereo not given) | 15.2 µM | 36.9 µM | > 100 µM | > 100 µM | – | – | – | –
2 | C[C@H]1CCC2C(CN3CCCCC3)C(=O)OC2[C@]2(C)C(=O)CC(N3CCCCC3)C12O (stereo not given in full) | – | – | – | – | 23.9 µM | > 100 µM | 13.1 µM | TGI [4]: 3.71 µM; TGI [6]: 48.4 µM
3 | C=CCn1c(=O)c(C(=O)NC(=O)OCC)cn(C2CCCCC2)c1=O | – | – | – | – | – | > 100 µM | > 100 µM | TGI [4]: > 100 µM; TGI [6]: > 100 µM; TGI [8]: > 100 µM
4 | CC(=O)Nc1ccc(Cc2ccc3[nH]c(=O)cc(C)c3c2)cc1 | – | > 100 µM | – | > 100 µM | – | – | – | TGI [9]: > 100 µM
5 | COC(=O)[C@H](C)[C@@H]1CC[C@](C)(CCC2=C(C)CCCC2(C)C)OO1 | – | > 25 µM | – | > 25 µM | – | – | – | TGI [9]: > 25 µM
6 | C=C(C)C1CCC2(C(=O)O)CCC3(C)C(CCC4C5(C)CCC(O)C(C)(C)C5CCC43C)C12 (stereo not given) | – | 31.5 µM | – | 35.5 µM | – | – | – | TGI [9]: 54.9 µM
7 | O=C1CCCCCCCCCCOC(=O)CCCCCCCCCCO1 | – | – | – | – | > 100 µM | > 100 µM | > 100 µM | TGI [6]: > 100 µM
8 | Cc1nc2cc(Nc3nc(Nc4ccc(F)cc4)nc(N4CCCC4)n3)ccc2n1Cc1ccccc1 | 1.96 µM | 3.94 µM | 2.18 µM | 4.94 µM | – | – | – | –
9 | Clc1ccc(Nc2ncnc3c2sc2ncccc23)c(Cl)c1 | 0.0139 µM | > 100 µM | – | – | – | – | – | –
10 | O=C(CC1(O)C(=O)Nc2ccc([N+](=O)[O-])cc21)c1ccc(Br)cc1 (stereo not given) | – | – | – | – | 69 µM | > 100 µM | > 100 µM | TGI [6]: > 100 µM; TGI [8]: > 100 µM
11 | O=C(Nc1nc(-c2ccccc2Cl)cs1)c1cc(-c2ccc(Cl)cc2)nc2ccc(Cl)cc12 | 1.73 µM | > 100 µM | 22.5 µM | > 100 µM | – | – | – | –
12 | C=C(C)[C@@H]1CC[C@]2(C(=O)N3CCN(C)CC3)CC[C@]3(C)[C@H](CC[C@@H]4[C@@]5(C)CC[C@H](O)C(C)(C)[C@@H]5CC[C@]43C)[C@@H]12 | – | – | 1.48 µM | 3.75 µM | – | – | – | –
13 | Oc1[nH]c2ccccc2c1/C=c1/ccc2c(c1)N=C(c1cc(F)cc(F)c1)N=2 | 4.18 µM | 17.7 µM | 4.55 µM | 21.3 µM | – | – | – | –
14 | O=c1[nH]c(-c2ccc([N+](=O)[O-])cc2)nc2ccc(Cl)cc12 | – | – | – | – | > 100 µM | > 100 µM | – | TGI [8]: > 100 µM
15 | NNc1ncnc2cccc(Cl)c12 | – | > 100 µM | – | > 100 µM | – | – | – | TGI [9]: > 100 µM
16 | C1=CC(=NN=P(c2ccccc2)(c2ccccc2)c2ccccc2)C=C1 | – | – | – | – | > 100 µM | – | > 100 µM | TGI [8]: > 100 µM
17 | C=CNC(=S)n1nc(-c2ccccc2NC(=O)C(F)(F)F)c(=O)n(C(=S)NC=C)c1=S | – | – | – | – | > 100 µM | > 100 µM | 28.9 µM | –
18 | COc1ccc2c(c1)CC1N(C)CCC13CCCCC23 (stereo not given) | – | > 100 µM | – | > 100 µM | – | – | – | TGI [9]: > 100 µM
19 | C/C(CC(=O)Nc1ccc([N+](=O)[O-])cc1)=N\Nc1ccc([N+](=O)[O-])cc1[N+](=O)[O-] | – | – | – | – | > 100 µM | > 100 µM | > 100 µM | TGI [4]: > 100 µM; TGI [8]: > 100 µM

Row | SMILES | GI50 [1] | TGI [1] | GI50 [2] | TGI [2] | TGI [3] | TGI [5] | TGI [7] | further results
20 | CCN(CC)CCNC(=O)C(Cl)=C1C(Cl)=C(Cl)C(Cl)=C1Cl | 2.98 µM | > 100 µM | 4.19 µM | 45.6 µM | – | – | – | –
21 | COc1ccc(Nc2ncccc2C(=O)NCc2cn(Cc3cccc(Oc4ccccc4)c3)nn2)c(OC)c1 | 2.12 µM | 35.5 µM | 39.4 µM | > 100 µM | – | – | – | –
22 | O=C(O)CCCc1cc2c(s1)-c1cccc3cccc-2c13 | – | – | – | – | – | 94.9 µM | – | TGI [8]: > 100 µM
23 | COc1cccc(/C=C2\CCc3ccccc3C2=O)c1 | 10.1 µM | 48.8 µM | 13.6 µM | 38.9 µM | – | – | – | –
24 | O=C(NC(Cc1ccccc1)C(=O)CCl)OCc1ccccc1 (stereo not given) | 6 µM | 53.7 µM | 3.37 µM | 16.7 µM | 27.3 µM | 50 µM | 4.66 µM | TGI [6]: 24 µM; TGI [8]: 20.2 µM
25 | CC(O)c1ccc(C(O)/C(=N\NC(=O)c2ccncc2)c2nc3ccc([N+](=O)[O-])cc3[nH]c2=O)cc1 (stereo not given) | – | – | – | – | > 100 µM | > 100 µM | 98.2 µM | TGI [4]: > 100 µM; TGI [8]: > 100 µM
26 | COc1cc2oc(-c3ccc(O)cc3)cc(=O)c2c(OC)c1O | – | > 100 µM | – | 88.2 µM | – | – | – | TGI [9]: > 100 µM
27 | Cc1cc(N(CCC#N)CCC#N)ccc1CC1N=C(c2ccccc2)OC1=O (stereo not given) | – | – | – | – | > 100 µM | – | > 100 µM | TGI [4]: > 100 µM; TGI [8]: > 100 µM
28 | CCN(CC)CC(O)c1cc(-c2ccc(Cl)cc2)nc2cc(Cl)ccc12 (stereo not given) | 2.25 µM | 6.04 µM | 2.53 µM | 7.01 µM | – | – | – | –
29 | CCOC(=O)Nc1cc(-c2ccc(C)c(NS(C)(=O)=O)c2)nn2c(C)nnc12 | 6.26 µM | > 100 µM | 1.47 µM | 17 µM | – | – | – | –
30 | CSCC(COC(C)=O)(CSC)c1ccncc1 | – | – | – | – | > 100 µM | > 100 µM | > 100 µM | TGI [8]: > 100 µM
31 | O=C(CC(=O)N1N=C(c2ccccc2)C(N=Nc2ccccc2Cl)C1=O)Nc1ccccc1Cl (stereo not given) | – | – | – | – | > 100 µM | > 100 µM | > 100 µM | TGI [4]: > 100 µM; TGI [8]: > 100 µM
32 | O=C(Nc1ccc(Cl)cc1)c1cc2ccccc2cc1OP(=O)(O)O | 3.51 µM | > 100 µM | 3.98 µM | 35.2 µM | – | – | – | –
33 | O=C(O)c1c[nH]c2c(ccc3[nH]cc(C(=O)O)c(=O)c32)c1=O | – | > 100 µM | – | > 100 µM | – | – | – | TGI [9]: > 100 µM
34 | Nc1nc(Cl)nc2c1ncn2C1OC(CO)C(O)C1O (stereo not given) | 0.579 µM | > 100 µM | > 100 µM | > 100 µM | – | – | – | –
35 | N/C(=N\C(N)=N\c1nc2ccccc2s1)c1ccnc(Br)c1 | 2.62 µM | 7.95 µM | 8.01 µM | > 100 µM | – | – | – | –
36 | COc1ccc2c(c1)C(=O)c1c-2c(OCCN2CCCCC2)nc2ccc(OC)cc12 | 0.761 µM | 10.3 µM | 3.44 µM | 25.8 µM | – | – | – | –
37 | COc1cc(-c2ccc(=O)oc2C#Cc2ccccc2)cc(OC)c1OC | > 100 µM | > 100 µM | 45.2 µM | > 100 µM | – | – | – | –
38 | ClCc1ccc(-c2ccc(Cn3cnc4c(Cl)ncnc43)cc2)cc1 | 2.16 µM | 4.7 µM | – | – | – | – | – | –
